± gives the expanded uncertainty stated by the source.
Details: DTA

Work on `CCn1cc[n+](C)c1.NCC(=O)[O-]` [1-ethyl-3-methylimidazolium ammonioacetate] yielded a Glass transition temperature of -62.0 ± 3 °C.
